According to ChEMBL document CHEMBL5303762, “Data for DCP probe BI-8668” (2023):

Legend:
Details in all cases: Compound concentration 10.0 uM
[1] = biological target: Cannabinoid receptor 1 (Homo sapiens) (UniProt P21554); experiment: CB1/CENTR/H Eurofins SafetyScreen44 (BI)
[2] = biological target: T1, 5-hydroxytryptamine receptor 3A (Homo sapiens) (UniProt P46098)
T1 sequence (whole entry): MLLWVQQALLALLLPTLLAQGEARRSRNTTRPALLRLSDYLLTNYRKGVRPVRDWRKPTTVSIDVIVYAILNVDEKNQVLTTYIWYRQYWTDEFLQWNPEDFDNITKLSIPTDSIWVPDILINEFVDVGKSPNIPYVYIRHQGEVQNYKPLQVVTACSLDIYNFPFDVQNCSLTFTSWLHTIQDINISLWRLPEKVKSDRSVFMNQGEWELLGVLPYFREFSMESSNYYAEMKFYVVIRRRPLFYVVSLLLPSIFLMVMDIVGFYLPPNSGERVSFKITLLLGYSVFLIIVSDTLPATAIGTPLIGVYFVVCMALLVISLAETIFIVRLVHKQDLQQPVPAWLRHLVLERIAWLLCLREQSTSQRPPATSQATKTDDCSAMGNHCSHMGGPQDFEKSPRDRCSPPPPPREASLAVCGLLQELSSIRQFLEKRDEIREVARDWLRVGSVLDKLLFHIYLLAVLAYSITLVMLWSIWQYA

[3] = biological target: Beta-1 adrenergic receptor (Homo sapiens) (UniProt P08588)
Sequence of Beta-1 adrenergic receptor (Homo sapiens) (P08588 whole entry, looked up): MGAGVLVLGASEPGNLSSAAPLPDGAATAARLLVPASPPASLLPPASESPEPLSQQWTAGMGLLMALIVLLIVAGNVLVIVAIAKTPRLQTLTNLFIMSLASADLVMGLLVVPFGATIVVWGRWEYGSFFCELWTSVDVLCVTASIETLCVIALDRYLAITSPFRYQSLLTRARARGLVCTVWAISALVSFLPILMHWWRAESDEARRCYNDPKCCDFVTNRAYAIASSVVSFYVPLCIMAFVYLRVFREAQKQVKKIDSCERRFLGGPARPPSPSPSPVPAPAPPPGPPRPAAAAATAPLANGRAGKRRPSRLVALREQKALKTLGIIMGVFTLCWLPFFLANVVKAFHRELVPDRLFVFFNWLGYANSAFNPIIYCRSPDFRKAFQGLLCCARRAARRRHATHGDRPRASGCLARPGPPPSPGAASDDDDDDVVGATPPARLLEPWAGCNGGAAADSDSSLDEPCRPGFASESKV

[4] = biological target: GABA-A receptor; anion channel (Rattus norvegicus) (UniProt O09028+P15431+P18506+P18508+P19969+P20236+P23574+P23576+P28471+P28473+P30191+P62813+P63079+P63138+Q91ZM7+Q9ES14)

Sequence of Cannabinoid receptor 1 (Homo sapiens) (P21554 whole entry): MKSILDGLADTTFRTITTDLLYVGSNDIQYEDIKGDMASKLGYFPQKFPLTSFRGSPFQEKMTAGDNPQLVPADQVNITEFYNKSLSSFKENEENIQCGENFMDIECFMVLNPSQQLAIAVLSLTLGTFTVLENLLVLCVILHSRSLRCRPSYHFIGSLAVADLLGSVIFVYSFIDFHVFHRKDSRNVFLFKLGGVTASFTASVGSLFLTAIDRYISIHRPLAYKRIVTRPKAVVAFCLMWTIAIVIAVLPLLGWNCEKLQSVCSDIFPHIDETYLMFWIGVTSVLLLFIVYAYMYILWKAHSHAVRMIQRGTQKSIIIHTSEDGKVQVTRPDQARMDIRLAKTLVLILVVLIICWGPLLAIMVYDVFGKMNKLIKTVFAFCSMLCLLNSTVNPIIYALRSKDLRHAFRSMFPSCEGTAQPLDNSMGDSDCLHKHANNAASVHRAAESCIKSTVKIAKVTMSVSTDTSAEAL

CCn1c(CNC(=O)c2nc(Cl)cnc2N)[n+](CC)c2ccc(C(=O)N(C)CCN(C)C)cc21
inactive: residual activity [1] 99% | inhibition [2] 8.37% | inhibition [3] 4.25% | inhibition [4] 22.4%
